Patent US8680133B2, “Alkyl indole-3-carbinol-derived antitumor agents” (The Ohio State University Research Foundation, priority 2009, dated 2014)

Tests used:
SF-539 = experiment: NCI60 screening, CNS Cancer, SF-539; type: cell-based, human
SNB-75 = experiment: NCI60 screening, CNS Cancer, SNB-75; type: cell-based, human
MDA-MB-435 = experiment: NCI60 screening, Melanoma, MDA-MB-435; type: cell-based, human
SK-MEL-28 = experiment: NCI60 screening, Melanoma, SK-MEL-28; type: cell-based, human
IGROV1 = experiment: NCI60 screening, Ovarian Cancer, IGROV1; type: cell-based, human
OVCAR-5 = experiment: NCI60 screening, Ovarian Cancer, OVCAR-5; type: cell-based, human
786-0 = experiment: NCI60 screening, Renal Cancer, 786-0; type: cell-based, human
MCF7 = experiment: NCI60 screening, Breast Cancer, MCF7; type: cell-based, human
MDA-MB-468 = experiment: NCI60 screening, Breast Cancer, MDA-MB-468; type: cell-based, human
[1] = system: human tumor cell lines of the cancer screening panel; experiment: NCI 60 cell line screening, whole panel, comparison with OSU-A9; type: cell-based; settings: OSU-A9 data not shown
[2] = Homo sapiens, read-out: LC50 (the source's name)

Cc1ccc2c(c1)c(CO)cn2S(=O)(=O)c1ccc(Cl)c([N+](=O)[O-])c1 [OSU-A9M, [1-(4-chloro-3-nitro-benzenesulfonyl)-5-methyl-1H-indol-3-yl]-methanol]
Percent Growth (SF-539; Log10 Concentration −5.0): −100% | Percent Growth (SF-539; Log10 Concentration −6.0): 88% | Percent Growth (SF-539; Log10 Concentration −7.0): 94% | Percent Growth (SF-539; Log10 Concentration −8.0): 93% | TGI (SNB-75): 2.70E−6 | GI50 (SNB-75; Homo sapiens): 1400 nM | LC50 (SNB-75; Homo sapiens): 5190 nM | Percent Growth (SNB-75; Log10 Concentration −4.0): −100% | Percent Growth (SNB-75; Log10 Concentration −5.0): −100% | Percent Growth (SNB-75; Log10 Concentration −6.0): 76% | Percent Growth (SNB-75; Log10 Concentration −7.0): 83% | Percent Growth (SNB-75; Log10 Concentration −8.0): 108% | TGI (MDA-MB-435): 2.93E−6 | GI50 (MDA-MB-435; Homo sapiens): 1520 nM | LC50 (50% lethal concentration) (MDA-MB-435; Homo sapiens): 5640 nM | Percent Growth (MDA-MB-435; Log10 Concentration −4.0): −92% | Percent Growth (MDA-MB-435; Log10 Concentration −5.0): −94% | Percent Growth (MDA-MB-435; Log10 Concentration −6.0): 82% | Percent Growth (MDA-MB-435; Log10 Concentration −7.0): 87% | Percent Growth (MDA-MB-435; Log10 Concentration −8.0): 95% | TGI (SK-MEL-28): 2.91E−6 | GI50 (SK-MEL-28; Homo sapiens): 1570 nM | LC50 (SK-MEL-28; Homo sapiens): 5400 nM | Percent Growth (SK-MEL-28; Log10 Concentration −4.0): −100% | Percent Growth (SK-MEL-28; Log10 Concentration −5.0): −100% | Percent Growth (SK-MEL-28; Log10 Concentration −6.0): 87% | Percent Growth (SK-MEL-28; Log10 Concentration −7.0): 89% | Percent Growth (SK-MEL-28; Log10 Concentration −8.0): 93% | TGI (IGROV1): 1.23E−6 | GI50 (IGROV1; Homo sapiens, IGROV-1): 349 nM | CC50 (IGROV1; Homo sapiens, IGROV-1, read-out: LC50 (the source's name)): 3500 nM | Percent Growth (IGROV1; Log10 Concentration −4.0): −100% | Percent Growth (IGROV1; Log10 Concentration −5.0): −100% | Percent Growth (IGROV1; Log10 Concentration −6.0): 10% | Percent Growth (IGROV1; Log10 Concentration −7.0): 98% | Percent Growth (IGROV1; Log10 Concentration −8.0): 86% | TGI (OVCAR-5): 3.04E−6 | GI50 (OVCAR-5; Homo sapiens): 1680 nM | CC50 (OVCAR-5; [2]): 5510 nM | Percent Growth (OVCAR-5; Log10 Concentration −4.0): −100% | Percent Growth (OVCAR-5; Log10 Concentration −5.0): −100% | Percent Growth (OVCAR-5; Log10 Concentration −6.0): 93% | Percent Growth (OVCAR-5; Log10 Concentration −7.0): 92% | Percent Growth (OVCAR-5; Log10 Concentration −8.0): 95% | TGI (786-0): 3.22E−6 | GI50 (786-0; Homo sapiens): 1780 nM | CC50 (786-0; [2]): 5830 nM | Percent Growth (786-0; Log10 Concentration −4.0): −100% | Percent Growth (786-0; Log10 Concentration −5.0): −95% | Percent Growth (786-0; Log10 Concentration −6.0): 98% | Percent Growth (786-0; Log10 Concentration −7.0): 98% | Percent Growth (786-0; Log10 Concentration −8.0): 96% | TGI (MCF7): 2.21E−6 | GI50 (MCF7; Homo sapiens): 582 nM | CC50 (MCF7; [2]): 6090 nM | Percent Growth (MCF7; Log10 Concentration −4.0): −82% | Percent Growth (MCF7; Log10 Concentration −5.0): −75% | Percent Growth (MCF7; Log10 Concentration −6.0): 39% | Percent Growth (MCF7; Log10 Concentration −7.0): 85% | Percent Growth (MCF7; Log10 Concentration −8.0): 84% | TGI (MDA-MB-468): 2.18E−6 | GI50 (MDA-MB-468; Homo sapiens): 979 nM | CC50 (MDA-MB-468; [2]): 4780 nM | Percent Growth (MDA-MB-468; Log10 Concentration −4.0): −95% | Percent Growth (MDA-MB-468; Log10 Concentration −5.0): −97% | Percent Growth (MDA-MB-468; Log10 Concentration −6.0): 50% | Percent Growth (MDA-MB-468; Log10 Concentration −7.0): 86% | Percent Growth (MDA-MB-468; Log10 Concentration −8.0): 90% | Potency in suppressing cancer cell growth compared with OSU-A9 [1]: significantly higher potency
